Test results taken from patent US20180369186A1, “METHOD FOR MODULATING AUTOPHAGY AND APPLICATIONS THEREOF” (JAWAHARLAL NEHRU CENTRE FOR ADVANCED SCIENTIFIC RESEARCH, priority 2015, published 2018).

Assays:
[1] = system: TH+ dopaminergic neurons in SNpc; assay: MPTP mouse model: TH+ dopaminergic neurons in SNpc (stereology, densitometry, volume); assay type: in vivo, mice
Protocol: As described by Vernice Jackson-Lewis & Serge Przedborski (2007), 23.4 mg/kg MPTP.HCl (equivalent to 20 mg/kg free base) in 10 ml/kg body wt. of saline is administered intraperitoneally (i.p.) for 4 times at 2 h intervals.
All mice are sacrificed 9 days post MPTP administration and brains are processed for immunohistochemistry.
Mice are anaesthetized using Halothane BP (Piramal Healthcare) inhalation and perfused intracardially with normal saline followed by 4% PFA in 0.1 M phosphate buffer, pH 7.4. Brains are removed quickly and post-fixed with 4% PFA for 24 h-48 h at 4° C. Following cryoprotection in 15% and 30% sucrose, 40 μm thick coronal cryosections of midbrain are collected serially on gelatinized slides. Immunoperoxidase labelling protocol as identical to that reported. Briefly, endogenous peroxidase is quenched using H2O2 (0.1%) in methanol (70%), followed by blocking of non-specific staining by buffered solution (3%) of bovine serum albumin for 4 h at room temperature. Sections are incubated with TH primary antibody (1:500) followed by biotin conjugated secondary antibody (1:200 dilution, Vector Laboratories). Tertiary labelling is performed with avidin-biotin complex solution (1:100, Vector Laboratories). Staining is visualized using 3′-3′-diaminobenzidine (0.05%) as a chromogen in a solution of 0.1M acetate imidazole buffer (pH 7.4) and H2O2 (0.1%). Negative controls are processed identically, except that primary antibody is replaced with dilution buffer.
As described by Y. Fu et al., SNpcis delineated using the 4× objective of Olympus BX61 Microscope (Olympus) equipped with Stereo Investigator Software Version 7.2 (MicroBrightField). Stereological quantification is performed using optical fractionator probe with slight modifications(P. A. Alladi et al.). Briefly, every sixth midbrain section containing SNpc is chosen and TH^+ cells are counted under 100× objective, with a regular grid interval of 22500 μm^2 (x=150 μm, y=150 μm) and counting frame with an area of 3600 μm^2 (x=60 μm, y=60 μm) (FIG. 10B). Mounted thickness is determined at every fifth site, averaging to 25 μm. Guard zone 4 μm is applied on either side, thus providing 17 μm of z-dimension within optical dissector. The quantification is performed starting with first anterior appearance of TH^+ neurons in SNpc to caudal most part. The SNpc volume is determined by planimetry (FIG. 10C) and total numbers of neurons according to mean measured thickness are noted.
High magnification images of TH stained nigral DAergic neurons, captured for offline assessment of Tyrosine Hydroxylase (TH) enzyme expression levels=used. Expression intensity is measured using a Windows based image analysis system (Q Win V3, Leica Systems). Cumulative mean is derived from the values obtained from sampling, approximately 200 DAergic neurons per animal. Intensity output is measured on a grey scale of 0-255, where 0 equals intense staining and 255 means absence of staining.
The mice are distributed into three groups' viz., vehicle, MPTP and MPTP+XCT 790 injected respectively. The vehicle group receives intraperitoneal injections of dimethyl sulfoxide (DMSO) injections i.e. the solvent. The MPTP group receives 23.4 mg/kg MPTP.HCl in 10 ml/kg body wt. of saline is administered intraperitoneally for 4 times at 2 h interval. The MPTP+XCT 790 group mice are injected with 5 mg/kg body wt, of XCT 790 dissolved in DMSO, alongside the first MPTP injection. […]

α-synuclein-EGFP = α-synuclein-EGFP degradation assay in yeast; assay type: cell-based, S. cerevisiae; conditions: 50 μM
Protocol: Subsequent degradation of α-synuclein-EGFP levels are analyzed using immunoblotting (FIG. 9A).
Yeast cultures after respective treatments are washed, mounted on agarose (2%) pad and imaged. Images are acquired using DeltaVision Elite widefield microscope (API, GE) with following filters: DAPI (390/18 and 435/48), FITC (490/20 and 529/38), TRITC (542/27 and 594/45) and Cy5 (632/22 and 676/34). Images are processed using DV SoftWoRX software. Autophagosome (yellow) and autolysosome (red) are counted using Cell Counter plug-in in imager software (NIH) and graphically represented as fold difference versus untreated (FIGS. 4A, B, C and D).
After inducing α-synuclein-EGFP aggregates in the corresponding yeast strains driven by galactose promoter, the protein expression is turned off by adding dextrose in the medium. Then, α-synuclein-EGFP aggregates degradation by XCT 790 are assessed by collecting cells treated with and without XCT 790 (50 μM) for 0 and 24 h. Subsequently, the protein levels are analyzed using immunoblotting.
The appropriate yeast strains (A600=3) are mixed in trichloroacetic acid (12.5%) and then stored at −80° C. Then, the samples are thawed on ice, centrifuged (16000×g, 15 min) and the pellets are washed twice with ice-cold acetone (80%). Pellets are air dried, resuspended in lysis solution (0.1 N NaOH and 1% SDS) and Laemmli buffer and boiled for 15 min.
After respective treatments, the yeast cultures were washed, seeded on agarose (2%) pad and then imaged.

DAergic neurons in SNpc = assay: MPTP mouse model: LC3 and A11 puncta in DAergic neurons of SNpc; assay type: in vivo
Protocol: The sequential immunolabeling procedure is used to co-label the TH and LC3 and/or A11. First, the midbrain sections are equilibrated with 0.1 M PBS (pH 7.4) for 10 min and then incubated with buffered bovine serum albumin (3%) for 4 h to block non-specific epitopes. Then, the sections are incubated in rabbit anti-LC3 antibody (1:1000) and/or anti-oligomer antibody (A11, 1:1000) for 72 h at 4° C. After subsequent washes, the sections are incubated in corresponding fluorescent secondary antibody (1:200) at 4° C., overnight.
Co-labeling with TH is performed on the same sections using rabbit anti-TH antibody (1:500), followed by secondary labeling. PBST (0.01 M, pH 7.4) is used as both working and washing buffer. Sections are then mounted using Vectashield hardset mounting medium.

[2] = 5 mg/kg, co-administered with MPTP

Structure (SMILES) | decrease in SNpc volume upon MPTP administration ([1]; 5 mg/kg i.p., Co and Pro groups) | α-synuclein-EGFP clearance in autophagy mutant atg1Δ (α-synuclein-EGFP; atg1Δ) | α-synuclein-EGFP levels in wild type cells (α-synuclein-EGFP; non-starvation and starvation, 0, 6, 12 and 24 h) | LC3B puncta per neuron, MPTP vs MPTP+Co (DAergic neurons in SNpc; 5 mg/kg, co administered with MPTP) | reduction in A11 positive toxic aggregates, MPTP vs MPTP+Co (DAergic neurons in SNpc; [2]) [fold] | p-GSK3B signals in DAergic neurons (DAergic neurons in SNpc; 6-Bio only and MPTP+Co cohorts) | prevention of SNpc volume shrinkage ([1]; 5 mg/kg, MPTP+Co vs MPTP) | alleviation of MPTP induced dopaminergic neuronal loss ([1]; 5 mg/kg, co-administration with MPTP) [%] | clearance of α-synuclein-EGFP in wild-type strain (α-synuclein-EGFP; 24 h, untreated vs treated) [fold] | vacuolar free EGFP (vacuolar degradation of α-synuclein-EGFP) (α-synuclein-EGFP; microscopy, WT α-synuclein-EGFP, untreated vs treated) [fold] | LC3 puncta per neuron, compound only vs placebo/vehicle (DAergic neurons in SNpc; 5 mg/kg of body weight, compound only cohort) [fold] | aggregates in compound only cohort vs vehicle (DAergic neurons in SNpc; 5 mg/kg, XCT 790 only) | LC3 puncta per cell, vehicle vs MPTP+Co (DAergic neurons in SNpc; [2]) [fold]
O=C1Nc2cc(Br)ccc2/C1=C1/Nc2ccccc2/C1=N\O [6-Bio, (2′Z,3′E)-6-Bromoindirubin-3′-oxime] | not seen | not in an autophagy mutant | time-dependent and significant decrease | ~2,5 fold | ~7 | Reduced p-GSK3B signals | – | – | – | – | – | – | –
COc1cc(C=C(C#N)C(=O)Nc2nnc(C(F)(F)F)s2)ccc1OCc1ccc(C(F)(F)F)cc1C(F)(F)F [XCT 790, 3-[4-(2,4-Bis-trifluoromethylbenzyloxy)-3-methoxyphenyl]-2-cyano-N-(5-trifluoromethyl-1,3,4-thiadiazol-2-yl)acrylamide] | – | – | – | – | ~6 | – | approximately 85% | 80 | ~2.5 | ~14 | ~3 | comparable to that of vehicle cohort | ~3
